Source: article PMC5766233, “Ternary copper(II) complex: NCI60 screening, toxicity studies, and evaluation of efficacy in xenograft models of nasopharyngeal carcinoma” (PLoS ONE, 2018)
Like-named read-outs stand apart in the source and are kept apart here.

Columns and labels:
CYP 2C9 = molecular target: T1, CYP 2C9 (Homo sapiens, UniProt P11712); assay: CYP450 inhibition assay, pooled human liver microsomes; type: in vitro ADME; settings: probe tolbutamide
T1 construct: Pooled human liver microsomes (Sekisui Xeno Tech, LLC., Kansas City, KS, USA) were incubated; tissue Sekisui Xeno Tech, LLC; host or cells: pooled human liver microsomes

[1] = system: NCI60 human cancer cell line panel
CYP3A = assay: Cytochrome P450 induction assay in rat primary hepatocytes, CYP3A; settings: for Fold induction CYP3A: 3 days; for % of positive control CYP3A: positive control dexamethasone 30 μM
Description: Assessment for potential drug-drug interaction is an important component of drug discovery and development. […] Most drug-drug interaction and drug metabolism occur in the hepatic cytochrome P450 (CYP) system. CYP is a superfamily of metabolizing enzymes located primarily in hepatocytes. Inhibition or induction of CYP enzymes is a mechanism for drug-drug interaction. In the current work, the inhibition and induction of CYP enzymes were investigated. CYP induction assay was performed using rat primary hepatocytes for CYP […] isoforms with dexamethasone (30 μM) and 3-methyl cholanthrene (1.0 μM) as […], respectively. Cytochrome CYP 3A enzymes are considered to be the most important enzymes catalyzing drug metabolism with broad substrate specificity while CYP 1A enzymes play key roles in the metabolic activation of aromatic hydrocarbons to carcinogenic metabolites. In orally administered anticancer drug, gut wall CYP 3A enzyme is considered important for drug-drug interactions and xenobiotic interactions.
5.0 x 10^5 viable rat hepatocytes were seeded into collagen-coated 24 well plate in 500 μL William’s medium E (Sigma Aldrich) per well and they were incubated at 37°C in a 5% CO2 humidified incubator. After an overnight incubation, the medium in each designated well was replaced with 500 μL of fresh medium containing the specified concentration of Cu(II) complex (1.0, 0.3 and 0.1 μM), dexamethasone (30 μM), 3-methyl cholanthrene (1.0 μM) as reference standards (positive controls) or fresh medium alone (vehicle control). The cells were treated for 3 consecutive days with daily replacement of fresh medium containing compounds. After incubation, the cells were washed with 1X HBSS and the medium was replaced with 300 μL of probe substrates (Midazolam at 10 μM and Phenacetin at 100 μM; prepared in HBSS). The cells were then incubated for a further 20 min at 37°C with mild shaking. The reaction was terminated by adding 600 μL of cold acetonitrile followed by scraping of cells. The above mixture in each well was transferred to a tube, and these tubes were centrifuged at 10,000 rpm for 10 min. The concentration/level of metabolites in the supernatant was monitored by LC-MS/MS.
The extent of fold induction as well as percent of positive control was calculated relative to basal control (untreated) by using the following formula.
%Activity=(averagearearatiooftreated/averagearearatioofbasalcontrol)x100
Foldinduction=%activity/100%ofpositivecontrol=foldinduction(Cu(II)treated)/foldinduction(referencestandardtreated)x100

[2] = system: CYP isoforms 1A2, 2C9, 2C19, 2D6, 2B6, 2C8 and 3A4; assay: CYP450 inhibition assay, summary over all tested isoforms; type: in vitro ADME, human; settings: pooled probe substrates; read-out: IC50 values against all tested isoforms
Description: In the CYP inhibition assay, human liver microsomes were incubated with the Cu(II) complex or reference standard. The inhibitory effects of these compounds were investigated against the major CYP isoforms namely 1A2, 2C9, 2C19, 2D6, 2B6, 2C8 and 3A4 with their respective isoform probe substrates in one reaction mixture (pooled probe substrate format using LC-MS/MS).
Pooled human liver microsomes (Sekisui Xeno Tech, LLC., Kansas City, KS, USA) were incubated with different concentrations of Cu(II) complex or reference standards in buffer containing 0.1% DMSO for 10 min at 37°C and the residual enzyme activity was measured using pooled probe substrates method by pooled LC-MS/MS. Briefly, incubation mixtures were prepared in a total volume of 200 μL with final component concentrations as follows: 0.1 M potassium phosphate buffer (pH 7.4), 1.5 mM NADPH, and 0.25 mg/ml HLM. […] After 20 min of incubation, the reactions were terminated by addition of 200 μL ice-cold acetonitrile (Rankem, Avantor Performance Materials India Limited, Andhra Pradesh, India) containing telmisartan and carbamazepine as internal standards (all probe substrates and standards were from Sigma Aldrich). […] The percent inhibition was calculated using the following equation: %Inhibition=100‑[(activityintestwells/activityinbasalcontrolwells)×100]

T1 sequence (P11712 whole entry): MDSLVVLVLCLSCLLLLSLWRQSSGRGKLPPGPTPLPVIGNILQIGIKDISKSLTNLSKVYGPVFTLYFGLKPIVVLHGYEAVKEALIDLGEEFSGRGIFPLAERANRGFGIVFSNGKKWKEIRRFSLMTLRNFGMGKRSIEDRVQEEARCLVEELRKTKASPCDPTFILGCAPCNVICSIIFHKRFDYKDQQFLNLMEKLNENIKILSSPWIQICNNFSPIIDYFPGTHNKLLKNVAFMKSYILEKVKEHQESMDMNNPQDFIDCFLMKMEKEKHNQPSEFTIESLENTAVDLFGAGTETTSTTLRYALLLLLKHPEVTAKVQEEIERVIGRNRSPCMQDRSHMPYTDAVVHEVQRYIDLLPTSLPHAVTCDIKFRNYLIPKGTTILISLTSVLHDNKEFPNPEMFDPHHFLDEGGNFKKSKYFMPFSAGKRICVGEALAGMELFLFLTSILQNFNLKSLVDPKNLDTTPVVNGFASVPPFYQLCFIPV

With `CC(C)(N)C(=O)[O-].O.O=[N+]([O-])[O-].[Cu+2].c1cnc2c(c1)ccc1cccnc12` [Cu(II) complex, [Cu(phen)(C-dmg)(H2O)]NO3] the IC50 (CYP 2C9) was 8.56 µM, the CC50 [1] was > 100 µM and the “cytotoxicity compared with cisplatin (mean LC50)” value ([1]; NCI60 panel) was “fivefold more cytotoxic”. For the same molecule, the CC50 ([1]; read-out: LC50, all renal cell lines) was 1 to 10 µM, the CC50 ([1]; read-out: LC50, leukemia panel (CCRF-CEM, HL-60(TB), K-562, MOLT-2, RPMI-8226, SR)) was > 100 µM and the GI50 ([1]; read-out: mean GI50, NCI60 panel, 48 h) was 1.51 µM. The CC50 ([1]; read-out: mean LC50, NCI60 panel, 48 h) was 9.12 µM, the “Fold induction CYP3A” value (CYP3A; 0.1 μM) was 1.3 and the “% of positive control CYP3A” value (CYP3A; 0.1 μM) was 4.7%. For the same molecule, the “Fold induction CYP3A” value (CYP3A; 0.3 μM) was 1.2, the “% of positive control CYP3A” value (CYP3A; 0.3 μM) was 4.3% and the “Fold induction CYP3A” value (CYP3A; 1.0 μM) was 0.8. For the same molecule, the Cell death observed (CYP3A; 1.0 μM, rat hepatocytes in the induction assay) was “** Cell death observed (approximately 30%)”, the “% of positive control CYP3A” value (CYP3A; 1.0 μM) was 3.0% and the “induction, % of positive control, CYP3A” value (CYP3A; 0.1-1.0 μM) was < 13%. For the same molecule, the IC50 [2] was 5 to 10 µM.
